# From US9925193B2, “Thioether derivatives as protein kinase inhibitors” (KTB TUMORFORSCHUNGSGESELLSCHAFT MBH, priority 2012, dated 2018)
# Assays:
# ALK = target: T1, ALK (Homo sapiens, UniProt Q9UM73); assay: 33PanQinase Activity Assay, ALK; type: biochemical; conditions: recombinant human protein kinase, 1 μM [γ-33P]-ATP, 30° C. 80 minutes
# T1 construct: made in house; host or cells: Sf9 insect cells (baculovirus)
# Procedure: (§1) The effect of the thioether derivatives 8a-v and 9a-i was tested on recombinant, human protein kinases. All protein kinases were expressed in Sf9 insect cells as human recombinant GST-fusion proteins or as His-tagged proteins by means of the baculovirus expression system. Protein kinases were purified by affinity chromatography using either GSH-agarose or Ni-NTH-agarose. The purity and identity of each was checked by SDS-PAGE/silver staining and by western blot analysis with specific antibodies.
# (§2) A proprietary protein kinase assay (^33PanQinase® Activity Assay) was used for measuring the kinase activity. All kinase assays were performed in 96-well FlashPlates™ in a 50 μl reaction volume. The assay for all enzymes contained 60 mM HEPES-NaOH, pH 7.5, 3 mM MgCl2, 3 mM MnCl2, 3 μM Na-orthovanadate, 1.2 mM DTT, 50 μg/ml PEG20000 and 1 μM [γ-^33P]-ATP (approx. 5×10^5 cpm per well).
# (§3) The reaction cocktails were incubated at 30° C. for 80 minutes. The reaction was stopped with 50 μl of 2% (v/v) H3PO4, plates were aspirated and washed two times with 200 μl of 0.9% (w/v) NaCl. Incorporation of ^33Pi was determined with a microplate scintillation counter. All assays were performed with a BeckmanCoulter/Sagian robotic system.
# AXL = target: T2, AXL (Homo sapiens, UniProt P30530); assay: 33PanQinase Activity Assay, AXL; type: biochemical; conditions: recombinant human protein kinase, 1 μM [γ-33P]-ATP, 30° C. 80 minutes
# T2 construct: made in house; host or cells: Sf9 insect cells (baculovirus)
# T2 sequence (P30530 26-894): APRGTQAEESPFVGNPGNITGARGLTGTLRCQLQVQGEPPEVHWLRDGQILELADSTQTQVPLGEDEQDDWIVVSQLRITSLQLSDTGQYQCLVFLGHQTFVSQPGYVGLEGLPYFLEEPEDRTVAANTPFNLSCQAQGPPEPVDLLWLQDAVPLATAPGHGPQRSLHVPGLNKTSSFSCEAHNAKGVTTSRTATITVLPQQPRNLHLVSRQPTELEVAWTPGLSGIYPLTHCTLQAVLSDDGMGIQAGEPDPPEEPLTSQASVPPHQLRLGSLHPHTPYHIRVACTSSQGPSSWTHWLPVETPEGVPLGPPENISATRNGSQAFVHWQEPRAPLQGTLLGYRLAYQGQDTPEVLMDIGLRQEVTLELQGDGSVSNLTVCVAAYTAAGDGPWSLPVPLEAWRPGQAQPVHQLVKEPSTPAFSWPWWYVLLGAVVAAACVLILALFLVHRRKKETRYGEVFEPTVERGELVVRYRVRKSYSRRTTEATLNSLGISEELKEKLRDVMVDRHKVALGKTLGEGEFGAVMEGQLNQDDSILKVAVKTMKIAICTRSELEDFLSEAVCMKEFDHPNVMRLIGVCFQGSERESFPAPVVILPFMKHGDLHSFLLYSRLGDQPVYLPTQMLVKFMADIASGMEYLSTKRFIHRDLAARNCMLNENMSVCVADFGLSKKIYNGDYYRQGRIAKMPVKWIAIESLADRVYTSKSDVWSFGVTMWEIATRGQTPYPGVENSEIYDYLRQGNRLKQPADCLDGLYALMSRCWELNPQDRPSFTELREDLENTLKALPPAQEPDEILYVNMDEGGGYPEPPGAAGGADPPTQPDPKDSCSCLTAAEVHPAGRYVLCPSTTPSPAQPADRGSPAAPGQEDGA
# Procedure: as §1, §2, §3
# FAK = target: T3, FAK (Homo sapiens, UniProt Q05397); assay: 33PanQinase Activity Assay, FAK; type: biochemical; conditions: recombinant human protein kinase, 1 μM [γ-33P]-ATP, 30° C. 80 minutes
# T3 construct: made in house; host or cells: Sf9 insect cells (baculovirus)
# Procedure: as §1, §2, §3
# IGF1-R = target: T4, IGF1-R (Homo sapiens, UniProt P08069); assay: 33PanQinase Activity Assay, IGF1-R; type: biochemical; conditions: recombinant human protein kinase, 1 μM [γ-33P]-ATP, 30° C. 80 minutes
# T4 construct: made in house; host or cells: Sf9 insect cells (baculovirus)
# Procedure: as §1, §2, §3
# PIM1 = target: T5, PIM1 (Homo sapiens, UniProt P11309); assay: 33PanQinase Activity Assay, PIM1; type: biochemical; conditions: recombinant human protein kinase, 1 μM [γ-33P]-ATP, 30° C. 80 minutes
# T5 construct: made in house; host or cells: Sf9 insect cells (baculovirus)
# Procedure: as §1, §2, §3
# PRK1 = target: T6, PRK1 (Homo sapiens, UniProt Q16512); assay: 33PanQinase Activity Assay, PRK1; type: biochemical; conditions: recombinant human protein kinase, 1 μM [γ-33P]-ATP, 30° C. 80 minutes
# T6 construct: made in house; host or cells: Sf9 insect cells (baculovirus)
# Procedure: as §1, §2, §3
# SRC = target: T7, SRC (Homo sapiens, UniProt P12931); assay: 33PanQinase Activity Assay, SRC; type: biochemical; conditions: recombinant human protein kinase, 1 μM [γ-33P]-ATP, 30° C. 80 minutes
# T7 construct: made in house; host or cells: Sf9 insect cells (baculovirus)
# Procedure: as §1, §2, §3
# VEGF-R2 = target: T8, VEGF-R2 (Homo sapiens, UniProt P35968); assay: 33PanQinase Activity Assay, VEGF-R2; type: biochemical; conditions: recombinant human protein kinase, 1 μM [γ-33P]-ATP, 30° C. 80 minutes
# T8 construct: made in house; host or cells: Sf9 insect cells (baculovirus)
# Procedure: as §1, §2, §3
# [1] = target: T9, ALK, AXL, FAK, KIT wt, IGF1-R, PIM1, PRK1, SRC and VEGF-R2; assay: 33PanQinase Activity Assay, kinase panel summary; type: biochemical, human; conditions: at least two kinases of the panel; read-out: IC50 values on at least two kinases from at least two different molecular mechanisms of tumor progression
# T9 construct: other: at le; fused on or other part: GST or His tag
# Procedure: as §1, §2, §3
# Thioether derivatives 8a-v and 9a-i show excellent IC50 values.
# T4 sequence (P08069 31-1367): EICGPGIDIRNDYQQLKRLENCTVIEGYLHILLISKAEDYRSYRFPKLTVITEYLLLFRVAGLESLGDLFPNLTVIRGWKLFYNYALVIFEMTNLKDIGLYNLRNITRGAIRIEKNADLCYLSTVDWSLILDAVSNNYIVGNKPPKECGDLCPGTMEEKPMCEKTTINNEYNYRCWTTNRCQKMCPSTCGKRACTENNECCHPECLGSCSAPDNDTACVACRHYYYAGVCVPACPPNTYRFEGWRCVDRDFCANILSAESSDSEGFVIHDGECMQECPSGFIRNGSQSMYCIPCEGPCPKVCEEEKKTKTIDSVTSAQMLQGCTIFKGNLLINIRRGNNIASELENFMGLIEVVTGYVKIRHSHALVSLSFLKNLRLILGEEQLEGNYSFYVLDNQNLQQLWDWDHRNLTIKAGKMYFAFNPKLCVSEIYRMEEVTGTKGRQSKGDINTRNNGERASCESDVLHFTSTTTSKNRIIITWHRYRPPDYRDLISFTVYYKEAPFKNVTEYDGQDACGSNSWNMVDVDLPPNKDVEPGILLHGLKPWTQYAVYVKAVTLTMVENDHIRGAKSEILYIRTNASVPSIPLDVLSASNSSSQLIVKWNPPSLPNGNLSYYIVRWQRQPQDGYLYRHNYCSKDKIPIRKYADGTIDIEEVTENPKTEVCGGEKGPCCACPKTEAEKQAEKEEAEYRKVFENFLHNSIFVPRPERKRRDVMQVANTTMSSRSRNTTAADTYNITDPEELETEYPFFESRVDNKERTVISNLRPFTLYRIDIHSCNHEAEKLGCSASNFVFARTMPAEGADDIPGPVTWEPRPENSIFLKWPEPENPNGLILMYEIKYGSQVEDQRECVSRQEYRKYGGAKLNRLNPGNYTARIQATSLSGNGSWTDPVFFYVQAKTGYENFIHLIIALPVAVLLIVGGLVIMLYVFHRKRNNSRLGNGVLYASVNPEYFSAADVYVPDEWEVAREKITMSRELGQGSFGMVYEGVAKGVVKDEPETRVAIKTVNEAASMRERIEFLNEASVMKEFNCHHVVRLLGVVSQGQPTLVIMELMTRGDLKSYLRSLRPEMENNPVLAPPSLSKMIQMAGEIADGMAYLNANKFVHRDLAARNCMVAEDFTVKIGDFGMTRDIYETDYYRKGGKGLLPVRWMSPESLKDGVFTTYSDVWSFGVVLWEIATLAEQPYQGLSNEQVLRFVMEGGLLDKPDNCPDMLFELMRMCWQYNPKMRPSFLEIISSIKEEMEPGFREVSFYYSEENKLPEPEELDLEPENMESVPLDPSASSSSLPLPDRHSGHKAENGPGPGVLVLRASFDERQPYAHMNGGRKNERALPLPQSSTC
# T1 sequence (Q9UM73 19-1620): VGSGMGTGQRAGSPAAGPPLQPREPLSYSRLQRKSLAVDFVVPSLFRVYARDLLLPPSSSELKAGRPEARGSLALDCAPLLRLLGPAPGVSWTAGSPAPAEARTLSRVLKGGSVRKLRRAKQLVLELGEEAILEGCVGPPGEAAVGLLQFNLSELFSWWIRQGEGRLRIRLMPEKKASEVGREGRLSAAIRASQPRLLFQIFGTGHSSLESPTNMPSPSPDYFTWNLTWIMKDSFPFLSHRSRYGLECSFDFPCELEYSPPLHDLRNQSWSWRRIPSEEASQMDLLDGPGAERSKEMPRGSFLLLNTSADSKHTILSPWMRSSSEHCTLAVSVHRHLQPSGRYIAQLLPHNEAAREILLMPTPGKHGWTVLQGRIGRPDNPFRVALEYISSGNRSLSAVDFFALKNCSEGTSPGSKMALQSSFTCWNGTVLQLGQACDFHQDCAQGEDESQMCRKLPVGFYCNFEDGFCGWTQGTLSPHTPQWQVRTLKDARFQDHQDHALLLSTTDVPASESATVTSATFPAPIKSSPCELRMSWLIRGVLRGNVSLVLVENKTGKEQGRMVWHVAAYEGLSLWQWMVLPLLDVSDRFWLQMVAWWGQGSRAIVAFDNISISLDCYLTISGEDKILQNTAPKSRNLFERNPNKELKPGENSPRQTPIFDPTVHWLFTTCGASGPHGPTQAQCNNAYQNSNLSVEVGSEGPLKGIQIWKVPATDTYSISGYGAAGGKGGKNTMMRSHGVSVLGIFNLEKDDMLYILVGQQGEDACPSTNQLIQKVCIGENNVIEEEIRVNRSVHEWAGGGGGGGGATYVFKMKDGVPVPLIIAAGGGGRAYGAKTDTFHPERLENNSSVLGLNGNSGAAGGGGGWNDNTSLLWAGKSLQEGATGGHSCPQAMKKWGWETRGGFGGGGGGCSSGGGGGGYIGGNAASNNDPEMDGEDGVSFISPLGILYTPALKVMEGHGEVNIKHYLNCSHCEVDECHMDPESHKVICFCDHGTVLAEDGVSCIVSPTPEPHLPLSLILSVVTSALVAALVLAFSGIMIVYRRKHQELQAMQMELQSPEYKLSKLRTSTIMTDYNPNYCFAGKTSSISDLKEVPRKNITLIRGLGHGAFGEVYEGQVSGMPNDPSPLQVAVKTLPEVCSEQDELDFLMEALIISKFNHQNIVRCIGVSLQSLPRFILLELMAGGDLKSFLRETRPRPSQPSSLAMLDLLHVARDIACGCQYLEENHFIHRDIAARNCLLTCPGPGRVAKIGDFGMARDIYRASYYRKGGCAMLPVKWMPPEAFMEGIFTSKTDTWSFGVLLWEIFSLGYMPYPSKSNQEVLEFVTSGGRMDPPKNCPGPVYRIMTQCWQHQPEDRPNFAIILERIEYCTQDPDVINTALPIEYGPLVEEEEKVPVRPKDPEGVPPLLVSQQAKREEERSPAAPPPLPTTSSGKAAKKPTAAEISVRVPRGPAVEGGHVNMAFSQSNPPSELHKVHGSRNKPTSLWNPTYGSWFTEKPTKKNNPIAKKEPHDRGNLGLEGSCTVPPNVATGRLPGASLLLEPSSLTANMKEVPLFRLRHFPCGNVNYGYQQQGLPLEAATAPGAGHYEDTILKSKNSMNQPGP
# T3 sequence (Q05397 whole entry): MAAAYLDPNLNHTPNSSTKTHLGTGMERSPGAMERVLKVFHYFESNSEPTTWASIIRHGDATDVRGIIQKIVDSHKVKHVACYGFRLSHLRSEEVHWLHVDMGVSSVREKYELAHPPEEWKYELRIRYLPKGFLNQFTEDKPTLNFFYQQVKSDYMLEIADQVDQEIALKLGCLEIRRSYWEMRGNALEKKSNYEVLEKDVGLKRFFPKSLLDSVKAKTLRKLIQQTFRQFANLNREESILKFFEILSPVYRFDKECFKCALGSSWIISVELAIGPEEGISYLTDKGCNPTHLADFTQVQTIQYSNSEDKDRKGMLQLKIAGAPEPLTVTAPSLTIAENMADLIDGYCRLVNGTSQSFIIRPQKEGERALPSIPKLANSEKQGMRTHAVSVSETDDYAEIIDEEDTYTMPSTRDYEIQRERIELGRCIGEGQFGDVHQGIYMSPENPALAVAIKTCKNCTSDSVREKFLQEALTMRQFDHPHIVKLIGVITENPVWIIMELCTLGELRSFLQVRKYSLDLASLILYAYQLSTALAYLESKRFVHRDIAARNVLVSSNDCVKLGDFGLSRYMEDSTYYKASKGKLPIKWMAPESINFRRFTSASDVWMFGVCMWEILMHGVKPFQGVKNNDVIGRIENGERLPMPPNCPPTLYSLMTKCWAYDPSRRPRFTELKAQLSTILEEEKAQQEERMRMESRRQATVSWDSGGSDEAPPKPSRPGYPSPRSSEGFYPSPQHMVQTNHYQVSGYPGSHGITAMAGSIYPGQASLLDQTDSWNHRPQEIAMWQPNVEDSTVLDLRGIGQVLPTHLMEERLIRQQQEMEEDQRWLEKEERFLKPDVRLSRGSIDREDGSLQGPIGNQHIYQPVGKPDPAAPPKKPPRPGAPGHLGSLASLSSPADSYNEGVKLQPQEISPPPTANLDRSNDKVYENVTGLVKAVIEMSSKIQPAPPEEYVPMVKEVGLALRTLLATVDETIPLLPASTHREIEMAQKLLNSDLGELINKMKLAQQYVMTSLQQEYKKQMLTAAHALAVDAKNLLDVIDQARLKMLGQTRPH
# T5 sequence (P11309 whole entry): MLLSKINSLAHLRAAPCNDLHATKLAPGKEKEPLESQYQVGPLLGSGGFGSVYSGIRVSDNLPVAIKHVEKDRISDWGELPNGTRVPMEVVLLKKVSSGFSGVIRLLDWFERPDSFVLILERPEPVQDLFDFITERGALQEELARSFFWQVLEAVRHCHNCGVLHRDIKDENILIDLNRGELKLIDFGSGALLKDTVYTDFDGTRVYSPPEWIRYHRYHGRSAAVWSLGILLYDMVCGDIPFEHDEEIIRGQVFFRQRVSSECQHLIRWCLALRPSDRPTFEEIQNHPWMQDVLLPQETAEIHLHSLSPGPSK
# T7 sequence (P12931 whole entry): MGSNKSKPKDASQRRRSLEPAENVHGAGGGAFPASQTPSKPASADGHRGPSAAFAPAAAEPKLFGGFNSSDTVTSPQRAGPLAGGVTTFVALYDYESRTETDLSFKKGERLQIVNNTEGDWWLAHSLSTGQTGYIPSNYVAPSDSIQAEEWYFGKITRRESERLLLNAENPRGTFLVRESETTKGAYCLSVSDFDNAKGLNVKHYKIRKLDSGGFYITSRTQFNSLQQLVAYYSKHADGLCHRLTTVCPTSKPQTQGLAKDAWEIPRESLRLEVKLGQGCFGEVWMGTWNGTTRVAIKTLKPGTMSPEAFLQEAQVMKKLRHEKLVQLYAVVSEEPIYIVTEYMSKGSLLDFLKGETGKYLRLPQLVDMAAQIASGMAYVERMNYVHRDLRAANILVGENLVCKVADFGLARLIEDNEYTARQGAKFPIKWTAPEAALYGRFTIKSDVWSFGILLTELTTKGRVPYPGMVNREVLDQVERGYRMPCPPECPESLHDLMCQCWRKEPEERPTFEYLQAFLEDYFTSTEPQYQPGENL
SMILES,IC50 (ALK) [µM],IC50 (AXL) [µM],IC50 (FAK) [µM],IC50 (IGF1-R) [µM],IC50 (PIM1) [µM],IC50 (PRK1) [µM],IC50 (SRC) [µM],IC50 (VEGF-R2) [µM],melting point [°C],IC50 [1] [µM]
"Fc1ccc(-c2cc3ncnc(Sc4ccc(C(F)(F)F)cc4)c3s2)cc1 [Compound 8h, 6-(4-Fluorophenyl)-4-{[4-(trifluoromethyl)phenyl]thio}thieno[3,2-d]pyrimidine]",1.03,2.94,2.04,1.37,11.3,33.9,0.681,1.84,172 to 175,
"Fc1ccc(-c2cc3ncnc(Sc4ncc[nH]4)c3s2)cc1 [Compound 8i, 4-[(1H-imidazol-2-yl)thio]-6-(4-fluorophenyl)thieno[3,2-d]pyrimidine]",23.7,41.5,22.1,23.1,11.1,86.1,11,20.8,204 to 206,
"Fc1ccc(-c2cc3ncnc(Sc4ccccn4)c3s2)cc1 [Compound 8j, 6-(4-Fluorophenyl)-4-(pyridin-2-ylthio)thieno[3,2-d]pyrimidine]",6.63,22.6,9.08,9.15,,47.3,6.35,9.69,172 to 174,
"Fc1ccc(-c2cc3ncnc(Sc4nnc(Cc5ccccc5)o4)c3s2)cc1 [Compound 8l, 2-Benzyl-5-{[6-(4-fluorophenyl)thieno[3,2-d]pyrimidin-4-yl]thio}-1,3,4-oxadiazole]",1.15,3.14,3.01,1.5,13.7,38,0.875,2.24,,
"FC(F)(F)c1ccc(-c2nnc(Sc3ncnc4[nH]c(-c5ccccc5)nc34)o2)cc1 [Compound 8v, 2-[(8-Phenyl-9H-purin-6-yl)thio]-5-[4-(trifluoromethyl)phenyl]-1,3,4-oxadiazole]",0.86,> 100,0.93,,,,0.7,,256 to 257,< 10

# Continued by falling IC50 (ALK), values first:
IC50 (ALK) [µM],IC50 (AXL) [µM],IC50 (FAK) [µM],IC50 (IGF1-R) [µM],IC50 (PIM1) [µM],IC50 (PRK1) [µM],IC50 (SRC) [µM],IC50 (VEGF-R2) [µM],melting point [°C],IC50 [1] [µM],SMILES
0.977,2.51,1.96,1.03,8.68,15.4,0.54,1.41,233 to 235,,"Fc1ccc(-c2cc3ncnc(Sc4nnc(-c5ccc(C(F)(F)F)cc5)o4)c3s2)cc1 [Compound 8e, 2-{[6-(4-Fluorophenyl)thieno[3,2-d]pyrimidin-4-yl]thio}-5-[4-(trifluoromethyl)-phenyl]-1,3,4-oxadiazole]"
0.651,3.2,1.28,1.27,10.4,14.6,0.487,1.47,166 to 168,,"COc1cccc(Cc2nnc(Sc3ncnc4cc(-c5ccc(F)cc5)sc34)o2)c1 [Compound 8f, 2-{[6-(4-Fluorophenyl)thieno[3,2-d]pyrimidin-4-yl]thio}-5-(3-methoxybenzyl)-1,3,4-oxadiazole]"
